Where a name gives a salt, the structure may show the parent alone.

T1 sequence (P36544 23-502): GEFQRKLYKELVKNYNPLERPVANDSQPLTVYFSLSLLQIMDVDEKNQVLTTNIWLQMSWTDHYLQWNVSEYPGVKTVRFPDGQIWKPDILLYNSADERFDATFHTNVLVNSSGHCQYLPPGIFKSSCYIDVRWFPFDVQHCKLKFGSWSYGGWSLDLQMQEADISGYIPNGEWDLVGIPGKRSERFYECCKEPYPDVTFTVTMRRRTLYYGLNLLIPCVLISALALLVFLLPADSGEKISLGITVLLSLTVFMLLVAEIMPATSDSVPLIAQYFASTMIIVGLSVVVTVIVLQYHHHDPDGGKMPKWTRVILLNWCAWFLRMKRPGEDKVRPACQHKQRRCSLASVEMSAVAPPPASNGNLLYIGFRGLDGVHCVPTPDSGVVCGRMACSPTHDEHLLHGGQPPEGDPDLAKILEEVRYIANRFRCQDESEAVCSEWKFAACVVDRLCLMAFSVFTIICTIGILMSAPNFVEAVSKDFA

One assay addresses T1, human α7 nAChR (Homo sapiens, UniProt P36544).
T1 construct: host or cells: GH4C1 cells (pituitary tumor, immortalized cell line)
Briefly: α7 nAChR FLIPR (Fluorometric Imaging Plate Reader) Ca2+ assay, agonist EC50. Format: cell-based. The note with it: GH4C1 cells stably transfected with human α7 nAChR; Fluo-4 Ca2+ fluorescence; Examples 194 to 205 tested as the HCl salt; read-out: pEC50 value (negative logarithm of the agonist EC50) (converted). Here is the method: α7 nAChR FLIPR® (Fluorometric Imaging Plate Reader) Assay
Function of the heterologous expressed α7 nAChR was assessed by a FLIPR-Ca^2+ assay. Since nAChRs are non-selective cation channels with high permeability to Ca^2+, these studies were carried out by measuring changes of intracellular Ca^2+ concentration using the Ca^2+-chelating fluorescent dye Fluo-4 and FLIPR® (Fluorometric Imaging Plate Reader) technology.
GH4C1cells (pituitary tumor, immortalized cell line) stably transfected with human α7 nAChR (Biocat ID 96986), were thawed, suspended in growth medium (Ham's Nutrient Mixture F10—Ham's F10, Invitrogen 31550-023, 15% Horse Serum heat inactivated—Invitrogen 26050-047, 2.5% Foetal Bovine Serum—FBS, Gibco 10500-064, 200 μg/ml Hygromycin B—Invitrogen, 10687-010, 10 mg/L Phenol Red—Sigma, P 0290, 1 mM Glutamine—Invitrogen, 25030-024) and plated in 500 cm^2 Triple Flask.
Cells were then incubated at 30° C., 5% CO2 for 72 hours.
On the day of the experiment, cells were washed twice with Assay Buffer (AB) (145 mM NaCl, 5 mM KCl, 1 mM MgCl2, 2 mM CaCl2, 20 mM HEPES, 5.5 mM Glucose pH=7.3) containing 2.5 mM Probenecid. Changes in the intracellular Ca^2+ content of stably transfected cells were measured using the Ca^2+ chelating dye Fluo-4 (Tef Labs 0152) in conjunction with a FLIPR® (Molecular Devices). The cell permeant dye Fluo-4 was prepared to a concentration of 1 mM in 100% DMSO and 10% Pluronic acid. The dye was then diluted with AB to a final concentration of 2 μM and placed on the cells. After 45-60 minutes dye loading incubation at 37° C., the unincorporated dye was removed from the cells by washing (80 μL, 3 times) with AB, and a final volume of 30 μL/well of AB was left in each well.
Plates containing test compounds (dissolved in 100% DMSO at 2 mM and serially diluted with DMSO) were copied into “daughter” plates (1 μL/well dispensation). Just prior to starting the assay, the “daughter” plate was diluted with 50 μL/well of AB.
The plates were then placed in the FLIPR®, and cell fluorescence was determined before drug addition (30 seconds) and monitored (excitation 488 nm, emission 510-580 nm) immediately following exposure to compounds. Maximum fluorescence values were recorded and fitted for agonist EC50 calculations.
The results are expressed as pEC50 values. A pEC50 is the negative logarithm of the agonist EC50 calculation as determined in the α7 nAChR FLIPR® assay. […] Variations in pEC50 may arise between tests.
Take `CCN(CC)CCCNc1nnc(-c2ccc(NC(=O)c3ccccc3F)cc2OC)o1` [Example 2, N-[4-(5-{[3-(Diethylamino)propyl]amino}-1,3,4-oxadiazol-2-yl)-3-(methyloxy)phenyl]-2-fluorobenzamidehydrochloride]: the EC50 is not above 1 µM.

As to `O=C(Nc1ccc(-c2nnc(NCCCN3CCCCC3)o2)cc1)c1cccs1` [Example 8, N-[4-(5-{[3-(1-Piperidinyl)propyl]amino}-1,3,4-oxadiazol-2-yl)phenyl]-2-thiophenecarboxamidehydrochloride], the EC50 is not above 1 µM.

Turning to `O=C(Nc1ccc(-c2nnc(NCCCN3CCCCC3)o2)cc1)c1ccsc1` [Example 10, N-[4-(5-{[3-(1-Piperidinyl)propyl]amino}-1,3,4-oxadiazol-2-yl)phenyl]-3-thiophenecarboxamidehydrochloride], the EC50 was not above 1 µM.

Take `O=C(Nc1ccc(-c2nnc(NCCCN3CCCCC3)o2)cc1)c1cccc(Cl)c1` [Example 12, 3-Chloro-N-[4-(5-{[3-(1-piperidinyl)propyl]amino}-1,3,4-oxadiazol-2-yl)phenyl]benzamidehydrochloride]: the EC50 is not above 1 µM.

With `O=C(Nc1ccc(-c2nnc(NCCCN3CCCCC3)o2)cc1)c1cccnc1` [Example 13, N-[4-(5-{[3-(1-Piperidinyl)propyl]amino}-1,3,4-oxadiazol-2-yl)phenyl]-3-pyridinecarboxamidehydrochloride], the EC50 is not above 1 µM.

Consider `O=C(Nc1ccc(-c2nnc(NCCCN3CCCCC3)o2)cc1)c1cccc(F)c1F` [Example 16, 2,3-Difluoro-N-[4-(5-{[3-(1-piperidinyl)propyl]amino}-1,3,4-oxadiazol-2-yl)phenyl]benzamidehydrochloride], for which the EC50 is not above 1 µM.

In the case of `O=C(Nc1ccc(-c2nnc(NCCCN3CCCCC3)o2)cc1)c1ccccn1` [Example 17, N-[4-(5-{[3-(1-Piperidinyl)propyl]amino}-1,3,4-oxadiazol-2-yl)phenyl]-2-pyridinecarboxamidehydrochloride], the EC50 is not above 1 µM.

For the molecule `O=C(Nc1ccc(-c2nnc(NCCCN3CCCCC3)o2)cc1)c1ccc(Cl)cc1` [Example 18, 4-Chloro-N-[4-(5-{[3-(1-piperidinyl)propyl]amino}-1,3,4-oxadiazol-2-yl)phenyl]benzamidehydrochloride], the EC50 was not above 1 µM.

Regarding `O=C(Nc1ccc(-c2nnc(NCCCCN3CCC(F)CC3)o2)c(F)c1)c1ccccc1F` [Example 26, 2-Fluoro-N-[3-fluoro-4-(5-{[4-(4-fluoro-1-piperidinyl)butyl]amino}-1,3,4-oxadiazol-2-yl)phenyl]benzamide], the EC50 is not above 0.1 µM.

Regarding `COc1cc(NC(=O)C2CCCCC2)ccc1-c1nnc(NCCCN2CCCCC2)o1` [Example 28, N-[3-(methyloxy)-4-(5-{[3-(1-piperidinyl)propyl]amino}-1,3,4-oxadiazol-2-yl)phenyl]cyclohexanecarboxamide], the EC50 is not above 1 µM.

For `COc1cc(NC(=O)c2ccccc2)ccc1-c1nnc(NCCCCN2CCCCC2)o1` [Example 32, N-[3-(methyloxy)-4-(5-{[4-(1-piperidinyl)butyl]amino}-1,3,4-oxadiazol-2-yl)phenyl]benzamide], the concentration giving a half-maximal response (EC50) was not above 0.1 µM.

For the molecule `O=C(Nc1ccc(-c2nnc(NCCCCN3CCCCC3)o2)c(F)c1)c1ccccc1F` [Example 46, 2-fluoro-N-[3-fluoro-4-(5-{[4-(1-piperidinyl)butyl]amino}-1,3,4-oxadiazol-2-yl)phenyl]benzamide], the EC50 was not above 0.1 µM.

On to `O=C(Nc1ccc(-c2nnc(NCCCN3CCCC3)o2)c(F)c1)c1ccccc1F` [Example 47, 2-fluoro-N-[3-fluoro-4-(5-{[3-(1-pyrrolidinyl)propyl]amino}-1,3,4-oxadiazol-2-yl)phenyl]benzamide], for which the half-maximal effective concentration (EC50) is not above 1 µM.

Take `O=C(Nc1ccc(-c2nnc(NCCCCN3CCCC3)o2)c(F)c1)c1ccccc1F` [Example 48, 2-fluoro-N-[3-fluoro-4-(5-{[4-(1-pyrrolidinyl)butyl]amino}-1,3,4-oxadiazol-2-yl)phenyl]benzamide]: the EC50 was not above 0.1 µM.

In the case of `CCN(CC)CCCNc1nnc(-c2ccc(NC(=O)c3ccccc3F)cc2F)o1` [Example 50, N-[4-(5-{[3-(diethylamino)propyl]amino}-1,3,4-oxadiazol-2-yl)-3-fluorophenyl]-2-fluorobenzamide], the EC50 is not above 1 µM.

`CCN(CC)CCCCNc1nnc(-c2ccc(NC(=O)c3ccccc3F)cc2F)o1` [Example 51, N-[4-(5-{[4-(diethylamino)butyl]amino}-1,3,4-oxadiazol-2-yl)-3-fluorophenyl]-2-fluorobenzamide]: the EC50 is not above 1 µM.

Take `CCN(CC)CCCCNc1nnc(-c2ccc(NC(=O)c3ccccc3F)cc2OC)o1` [Example 52, N-[4-(5-{[4-(diethylamino)butyl]amino}-1,3,4-oxadiazol-2-yl)-3-(methyloxy)phenyl]-2-fluorobenzamide]: the EC50 was not above 0.1 µM.

For the molecule `O=C(Nc1ccc(-c2nnc(NCCCN3CCCCC3)o2)c(F)c1)C1CCCCC1` [Example 53, N-[3-fluoro-4-(5-{[3-(1-piperidinyl)propyl]amino}-1,3,4-oxadiazol-2-yl)phenyl]cyclohexanecarboxamide], the EC50 is not above 1 µM.

As for `O=C(Nc1ccc(-c2nnc(NCCCCN3CCCCC3)o2)c(F)c1)C1CCCCC1` [Example 54, N-[3-fluoro-4-(5-{[4-(1-piperidinyl)butyl]amino}-1,3,4-oxadiazol-2-yl)phenyl]cyclohexanecarboxamide], the EC50 is not above 0.1 µM.

On to `O=C(Nc1ccc(-c2nnc(NCCCCN3CCCC3)o2)c(F)c1)C1CCCCC1` [Example 55, N-[3-fluoro-4-(5-{[4-(1-pyrrolidinyl)butyl]amino}-1,3,4-oxadiazol-2-yl)phenyl]cyclohexanecarboxamide], for which the EC50 is not above 0.1 µM.

For `O=C(Nc1ccc(-c2nnc(NCCCN3CCCC3)o2)c(F)c1)C1CCCCC1` [Example 56, N-[3-fluoro-4-(5-{[3-(1-pyrrolidinyl)propyl]amino}-1,3,4-oxadiazol-2-yl)phenyl]cyclohexanecarboxamide], the concentration for a half-maximal effect (EC50) is not above 1 µM.

On to `O=C(Nc1ccc(-c2nnc(NCCCCN3CCOCC3)o2)c(F)c1)C1CCCCC1` [Example 58, N-[3-fluoro-4-(5-{[4-(4-morpholinyl)butyl]amino}-1,3,4-oxadiazol-2-yl)phenyl]cyclohexanecarboxamide], for which the EC50 is not above 1 µM.

Turning to `CCN(CC)CCCNc1nnc(-c2ccc(NC(=O)C3CCCCC3)cc2F)o1` [Example 59, N-[4-(5-{[3-(diethylamino)propyl]amino}-1,3,4-oxadiazol-2-yl)-3-fluorophenyl]cyclohexanecarboxamide], the EC50 is not above 1 µM.

Regarding `CCN(CC)CCCCNc1nnc(-c2ccc(NC(=O)C3CCCCC3)cc2F)o1` [Example 60, N-[4-(5-{[4-(diethylamino)butyl]amino}-1,3,4-oxadiazol-2-yl)-3-fluorophenyl]cyclohexanecarboxamide], the EC50 was not above 1 µM.

As to `O=C(Nc1ccc(-c2nnc(NCCCN3CCCCC3)o2)c(C(F)(F)F)c1)C1CCCCC1` [Example 61, N-[4-(5-{[3-(1-piperidinyl)propyl]amino}-1,3,4-oxadiazol-2-yl)-3-(trifluoromethyl)phenyl]cyclohexanecarboxamide], the concentration giving a half-maximal response (EC50) is not above 1 µM.

Take `O=C(Nc1ccc(-c2nnc(NCCCCN3CCCCC3)o2)c(C(F)(F)F)c1)C1CCCCC1` [Example 62, N-[4-(5-{[4-(1-piperidinyl)butyl]amino}-1,3,4-oxadiazol-2-yl)-3-(trifluoromethyl)phenyl]cyclohexanecarboxamide]: the EC50 is not above 0.1 µM.

In the case of `O=C(Nc1ccc(-c2nnc(NCCCN3CCCC3)o2)c(C(F)(F)F)c1)C1CCCCC1` [Example 63, N-[4-(5-{[3-(1-pyrrolidinyl)propyl]amino}-1,3,4-oxadiazol-2-yl)-3-(trifluoromethyl)phenyl]cyclohexanecarboxamide], the EC50 was not above 1 µM.

The assay is the same for the next values; noted with them: alpha 7 assay described in the Examples.
`CC(C)(C)C(=O)Nc1ccc(-c2nnc(NCCCN3CCCCC3)o2)cc1` [2,2-dimethyl-N-[4-(5-{[3-(1-piperidinyl)propyl]amino}-1,3,4-oxadiazol-2-yl)phenyl]propanamide]: the “activity in the alpha 7 assay” value is “not found to have activity”.

The term EC50 denotes the concentration that produces a half-maximal response.

(Values after patent publication US20090105217A1, “2-PHENYL-5-AMINO-1,3,4-OXADIAZOLES AND THEIR USE AS NICOTINIC ACETYLCHOLINE RECEPTOR LIGANDS” (priority 2007, published 2009).)
